# Data from patent US7592373B2 (Boehringer Ingelheim International GmbH, priority 2003, dated 2009).
# Structures can show the parent of a compound that is named as a salt.
row,SMILES,melting point [°C]
1,"NC(=O)C1CCN(Cc2ccc(CCC(=O)Nc3ccc(-c4ccc(Cl)cc4)cc3)cc2)CC1 [Example 6.5, 1-{4-[2-(4′-chlorobiphenyl-4-ylcarbamoyl)ethyl]benzyl}piperidine-4-carboxylic acid amide]",240 to 241
2,"COC1CCN(Cc2ccc(/C=C/C(=O)Nc3ccc(-c4ccc(Cl)cc4)cc3)cc2)CC1 [Example 5.4, (E)-N-(4′-chlorobiphenyl-4-yl)-3-[4-(4-methoxypiperidin-1-ylmethyl)phenyl]acrylamide]",205 to 206
3,"CCCN(CCOc1ccc(NC(=O)C#Cc2ccc(C(F)(F)F)cc2Cl)cc1OC)CC1CC1 (as salt: hydrochloride) [Example 4.279, 3-(2-chloro-4-trifluoromethylphenyl)propynoic acid-{4-[2-(cyclopropylmethylpropylamino)ethoxy]-3-methoxyphenyl}amide hydrochloride]",185 to 188
4,"CN1CCN(Cc2ccc(NC(=O)C#Cc3ccc(-c4ccc(Cl)cc4)cc3)cc2)CC1 [Example 3.8, 3-(4′-chlorobiphenyl-4-yl)propynoic acid-[4-(4-methylpiperazin-1-ylmethyl)phenyl]amide]",182 to 185
5,"O=C(/C=C/c1ccc(CN2CCC(CO)CC2)cc1)Nc1ccc(-c2ccc(Cl)cc2)cc1 [Example 5.8, (E)-N-(4′-chlorobiphenyl-4-yl)-3-[4-(4-hydroxymethylpiperidin-1-ylmethyl)phenyl]acrylamide]",190 to 191
6,"COC1CCN(Cc2ccc(CCC(=O)Nc3ccc(-c4ccc(Cl)cc4)cc3)cc2)CC1 [Example 6.3, N-(4′-chlorobiphenyl-4-yl)-3-[4-(4-methoxypiperidin-1-ylmethyl)phenyl]propionamide]",143 to 144
7,"CCN(CC)CCCOc1ccc(NC(=O)C#Cc2ccc(C(F)(F)F)cc2Cl)cc1Cl (as salt: formate) [Example 4.18, 3-(2-chloro-4-trifluoromethylphenyl)propynoic acid-[3-chloro-4-(3-diethylaminopropoxy)phenyl]amide formate]",112 to 116
8,"CCN(CC)CCc1ccc(NC(=O)C#Cc2ccc(Cl)cc2Cl)cc1 (as salt: hydrochloride) [Example 3.34, 3-(2,4-dichlorophenyl)propynoic acid-[4-(2-diethylaminoethyl)phenyl]amide hydrochloride]",204 to 208
9,"O=C(CCc1ccc(CNC2CCCCC2)cc1)Nc1ccc(-c2ccc(Cl)cc2)cc1 [Example 6.39, N-(4′-chlorobiphenyl-4-yl)-3-(4-cyclohexylaminomethylphenyl)propionamide]",208
10,"O=C(C#Cc1ccc(-c2ccc(Cl)cc2)cc1)Nc1ccc2c(ccn2CCN2CCCC2)c1 [Example 3.19, 3-(4′-chlorobiphenyl-4-yl)propynoic acid-[1-(2-pyrrolidin-1-ylethyl)-1H-indol-5-yl]amide]",224 to 227
11,CN(Cc1ccc(C#CC(=O)Nc2ccc(-c3ccc(Cl)cc3)cc2)cc1)C1CCCC1 [Example 1.425],217 to 219
12,"CN(CCOc1ccccc1)Cc1ccc(CCC(=O)Nc2ccc(-c3ccc(Cl)cc3)cc2)cc1 [Example 6.20, N-(4′-chlorobiphenyl-4-yl)-3-(4-{[methyl-(2-phenoxyethyl)amino]methyl}phenyl)propionamide]",122 to 124
13,"O=C(C#Cc1ccc(CN2CCC[C@@H]2CO)cc1)Nc1ccc(-c2ccc(Cl)cc2)cc1F [Example 1.20, 3-[4-((R)-2-hydroxymethylpyrrolidin-1-ylmethyl)phenyl]propynoic acid-(4′-chloro-3-fluorobiphenyl-4-yl)amide]",146 to 148
14,"CCN(CC)CCOc1ccc(NC(=O)C#Cc2ccc(-c3ccccc3)cc2)cc1Cl [Example 4.4, 3-biphenyl-4-ylpropynoic acid-[3-chloro-4-(2-diethylaminoethoxy)phenyl]amide]",105 to 108
15,"CC1CCCC(C)N1Cc1ccc(NC(=O)C#Cc2ccc(-c3ccc(Cl)cc3)cc2)cc1 (stereo not shown) [Example 3.9, 3-(4′-chlorobiphenyl-4-yl)propynoic acid-[4-(2,6-dimethylpiperidin-1-ylmethyl)phenyl]amide]",158 to 163
16,"O=C(C#Cc1ccc(C(F)(F)F)cc1Cl)Nc1ccc2nc(N3CCCCC3)ccc2c1 [Example 7.1, 3-(2-chloro-4-trifluoromethylphenyl)propynoic acid-(2-piperidin-1-ylquinolin-6-yl)amide]",176 to 179
17,"O=C(C#Cc1ccc(C(F)(F)F)cc1Cl)Nc1ccc(OCCn2cccn2)cc1 [Example 3.43, 3-(2-chloro-4-trifluoromethylphenyl)propynoic acid-[4-(2-pyrazol-1-ylethoxy)phenyl]amide]",120 to 125
18,"O=C(CCc1ccc(CNC2CC2)cc1)Nc1ccc(-c2ccc(Cl)cc2)cc1 (as salt: trifluoroacetate) [Example 6.43, N-(4′-chlorobiphenyl-4-yl)-3-(4-cyclopropylaminomethylphenyl)propionamide trifluoroacetate]",208
19,"CN(Cc1ccc(CCC(=O)Nc2ccc(-c3ccc(Cl)cc3)cc2)cc1)C1CCOCC1 [Example 6.12, N-(4′-chlorobiphenyl-4-yl)-3-(4-{[methyl-(tetrahydropyran-4-yl)amino]methyl}phenyl)propionamide]",167 to 173

row,SMILES,melting point [°C]
1,"O=C(C#Cc1ccc(CCN2CCCC2)cc1)Nc1ccc(-c2ccccc2)cc1 [Example 2.1, 3-[4-(2-pyrrolidin-1-ylethyl)phenyl]propynoic Acid biphenyl-4-ylamide]",180 to 189
2,"COCCN(C)Cc1ccc(CCC(=O)Nc2ccc(-c3ccc(Cl)cc3)cc2)cc1 [Example 6.17, N-(4′-chlorobiphenyl-4-yl)-3-(4-{[(2-methoxyethyl)methylamino]methyl}phenyl)propionamide]",138
3,"COC1CCN(Cc2ccc(NC(=O)C#Cc3ccc(-c4ccc(Cl)cc4)cc3)cc2)CC1 [Example 3.13, 3-(4′-chlorobiphenyl-4-yl)propynoic acid-[4-(4-methoxypiperidin-1-ylmethyl)phenyl]amide]",227 to 234
4,O=C(C#Cc1ccc(CN2CCC(N3CCCC3)CC2)cc1)Nc1ccc(-c2ccc(Cl)cc2)cc1 [Example 1.38],191 to 192
5,"O=C(/C=C/c1ccc(CNCC2CCCCC2)cc1)Nc1ccc(-c2ccc(Cl)cc2)cc1 [Example 5.21, (E)-N-(4′-chlorobiphenyl-4-yl)-3-{4-[(cyclohexylmethylamino)methyl]phenyl}acrylamide]",262 to 263
6,"O=C(C#Cc1ccc(-c2ccc(Cl)cc2)cc1)Nc1ccc(CN2CCC(O)(C(F)(F)F)CC2)cc1 [Example 3.17, 3-(4′-chlorobiphenyl-4-yl)propynoic acid-[4-(4-hydroxy-4-trifluoromethylpiperidin-1-ylmethyl)phenyl]amide]",194 to 200
7,"C[C@@H]1C[C@H](C)CN(Cc2ccc(CCC(=O)Nc3ccc(-c4ccc(Cl)cc4)cc3)cc2)C1 [Example 6.26, N-(4′-chlorobiphenyl-4-yl)-3-[4-((3S,5R)-3,5-dimethylpiperidin-1-ylmethyl)phenyl]propionamide]",164 to 169
8,"O=C(C#Cc1ccc(C(F)(F)F)cc1Cl)Nc1ccc(OCCn2cnnc2)cc1 [Example 3.44, 3-(2-chloro-4-trifluoromethylphenyl)propynoic acid-[4-(2-[1.2.4]triazol-4-ylethoxy)phenyl]amide]",223 to 227
9,"CCN(CC)CCOc1ccc(NC(=O)C#Cc2ccc(-c3ccccc3)cc2Cl)cc1Cl (as salt: hydrochloride) [Example 3.32, 3-(3-chlorobiphenyl-4-yl)propynoic acid-[3-chloro-4-(2-diethylaminoethoxy)phenyl]amide hydrochloride]",195 to 200
10,"O=C(CCc1ccc(CN2CCC3(CCCC3)CC2)cc1)Nc1ccc(-c2ccc(Cl)cc2)cc1 [Example 6.28, 3-[4-(8-azaspiro[4.5]dec-8-ylmethyl)phenyl]-N-(4′-chlorobiphenyl-4-yl)propionamide]",201.5
11,"CCN(CC)CCOc1ccc(NC(=O)C#Cc2ccc(Cl)cc2Cl)c(Cl)c1 (as salt: hydrochloride) [Example 4.8, 3-(2,4-dichlorophenyl)propynoic acid-[2-chloro-4-(2-diethylaminoethoxy)phenyl]amide]",128 to 130
12,"O=C(C#Cc1ccc(-c2ccccc2)cc1Cl)Nc1ccc(CN2CCCCC2)cc1 (as salt: hydrochloride) [Example 3.33, 3-(3-chlorobiphenyl-4-yl)propynoic acid-(4-piperidin-1-ylmethylphenyl)amide hydrochloride]",260 to 265
13,"O=C(C#Cc1ccc(Cl)cc1)Nc1ccc2c(ccn2CCN2CCCC2)c1 [Example 4.9, 3-(4-chlorophenyl)propynoic acid-[1-(2-pyrrolidin-1-ylethyl)-1H-indol-5-yl]amide]",135 to 144
14,"CCN(CC)CCOc1ccc(NC(=O)C#Cc2ccc(Cl)cc2Cl)cc1Cl [Example 4.1, 3-(2,4-dichlorophenyl)propynoic acid-[3-chloro-4-(2-diethylaminoethoxy)phenyl]amide]",98 to 100
15,"CC1CCN(Cc2ccc(CCC(=O)Nc3ccc(-c4ccc(Cl)cc4)cc3)cc2)CC1 [Example 6.2, N-(4′-chlorobiphenyl-4-yl)-3-[4-(4-methylpiperidin-1-ylmethyl)phenyl]propionamide]",150 to 151
16,"COc1cc(NC(=O)C#Cc2ccc(C(F)(F)F)cc2Cl)ccc1OCCN1CCc2ccccc2C1 (as salt: formate) [Example 4.275, 3-(2-chloro-4-trifluoromethylphenyl)propynoic acid-{4-[2-(3,4-dihydro-1H-isoquinolin-2-yl)ethoxy]-3-methoxyphenyl}amide formate]",92 to 95
17,"O=C(CCc1ccc(CNC2CCCC2)cc1)Nc1ccc(-c2ccc(Cl)cc2)cc1 [Example 6.41, N-(4′-chlorobiphenyl-4-yl)-3-(4-cyclopentylaminomethylphenyl)propionamide]",196 to 197
18,"CCN(CC)CCOc1ccc(NC(=O)C#Cc2ccc(C(F)(F)F)cc2Cl)cc1NS(C)(=O)=O [Example 4.23, 3-(2-chloro-4-trifluoromethylphenyl)propynoic acid-[4-(3-diethylaminoethoxy)-3-methanesulfonylaminophenyl]amide]",57 to 60
